Experimental data as given in the NIST ThermoML archive (doi:10.1016/j.jct.2017.06.002).

Experiment: xn = mol fraction of the nth substance listed
Conditions: 100 kPa, Liquid; for viscosity: Concentric cylinders viscometry; for mass density: Vibrating tube method

COCOCOCOCOC [2,4,6,8,10-pentaoxaundecane] + COCOCOCOC
Conditions | mass density [kg/m3] | viscosity [mPa·s]
288.15 K, x2 = 0 | 1078.8 | 2.207
288.15 K, x2 = 0.12 | 1074.7 | 2.085
288.15 K, x2 = 0.24 | 1070.3 | 1.982
288.15 K, x2 = 0.35 | 1065.8 | 1.899
288.15 K, x2 = 0.45 | 1061.1 | 1.83
288.15 K, x2 = 0.55 | 1056.3 | 1.769
288.15 K, x2 = 0.65 | 1051.8 | 1.707
288.15 K, x2 = 0.74 | 1047.6 | 1.642
288.15 K, x2 = 0.83 | 1043.9 | 1.553
288.15 K, x2 = 0.86 | 1042.2 | –
288.15 K, x2 = 0.92 | 1039.9 | 1.442
288.15 K, x2 = 0.96 | 1039.1 | –
293.15 K, x2 = 0 | 1073.3 | 2.015
293.15 K, x2 = 0.12 | 1069.2 | 1.895
293.15 K, x2 = 0.24 | 1065.1 | 1.798
293.15 K, x2 = 0.35 | 1061 | 1.724
293.15 K, x2 = 0.45 | 1056.7 | 1.663
293.15 K, x2 = 0.55 | 1052.2 | 1.606
293.15 K, x2 = 0.65 | 1047.5 | 1.556
293.15 K, x2 = 0.74 | 1043.1 | 1.494
293.15 K, x2 = 0.83 | 1038.9 | 1.412
293.15 K, x2 = 0.86 | 1036.6 | –
293.15 K, x2 = 0.92 | 1034.6 | 1.311
293.15 K, x2 = 0.96 | 1032.4 | –
298.15 K, x2 = 0 | 1068.2 | 1.848
298.15 K, x2 = 0.12 | 1064.2 | 1.729
298.15 K, x2 = 0.24 | 1060 | 1.639
298.15 K, x2 = 0.35 | 1055.5 | 1.574
298.15 K, x2 = 0.45 | 1051.3 | 1.523
298.15 K, x2 = 0.55 | 1047.1 | 1.472
298.15 K, x2 = 0.65 | 1043.1 | 1.429
298.15 K, x2 = 0.74 | 1038.5 | 1.374
298.15 K, x2 = 0.83 | 1034.1 | 1.3
298.15 K, x2 = 0.86 | 1031.3 | –
298.15 K, x2 = 0.92 | 1029.3 | 1.21
298.15 K, x2 = 0.96 | 1026.3 | –
303.15 K, x2 = 0 | 1063.4 | 1.703
303.15 K, x2 = 0.12 | 1059.7 | 1.582
303.15 K, x2 = 0.24 | 1055.1 | 1.496
303.15 K, x2 = 0.35 | 1050.5 | 1.437
303.15 K, x2 = 0.45 | 1046.1 | 1.394
303.15 K, x2 = 0.55 | 1041.8 | 1.354
303.15 K, x2 = 0.65 | 1038 | 1.319
303.15 K, x2 = 0.74 | 1033.9 | 1.273
303.15 K, x2 = 0.83 | 1029.5 | 1.217
303.15 K, x2 = 0.86 | 1026.8 | –
303.15 K, x2 = 0.92 | 1024.2 | 1.139
303.15 K, x2 = 0.96 | 1020.7 | –
308.15 K, x2 = 0 | 1059.1 | 1.576
308.15 K, x2 = 0.12 | 1055.5 | 1.448
308.15 K, x2 = 0.24 | 1050.8 | 1.366
308.15 K, x2 = 0.35 | 1046.2 | 1.313
308.15 K, x2 = 0.45 | 1041.8 | 1.28
308.15 K, x2 = 0.55 | 1037.5 | 1.248
308.15 K, x2 = 0.65 | 1033.7 | 1.23
308.15 K, x2 = 0.74 | 1029.8 | 1.192
308.15 K, x2 = 0.83 | 1025.5 | 1.149
308.15 K, x2 = 0.86 | 1022.6 | –
308.15 K, x2 = 0.92 | 1019.8 | 1.087
308.15 K, x2 = 0.96 | 1015.6 | –
313.15 K, x2 = 0 | 1055.2 | 1.464
313.15 K, x2 = 0.12 | 1051.7 | 1.331
313.15 K, x2 = 0.24 | 1047.2 | 1.252
313.15 K, x2 = 0.35 | 1042.8 | 1.207
313.15 K, x2 = 0.45 | 1038.2 | 1.18
313.15 K, x2 = 0.55 | 1034.2 | 1.155
313.15 K, x2 = 0.65 | 1030.3 | 1.143
313.15 K, x2 = 0.74 | 1026.4 | 1.121
313.15 K, x2 = 0.83 | 1022.1 | 1.092
313.15 K, x2 = 0.86 | 1018.9 | –
313.15 K, x2 = 0.92 | 1016.2 | 1.044
313.15 K, x2 = 0.96 | 1011.6 | –

COCOCOCOC [2,4,6,8-tetraoxanonane] + COCOCOC
Conditions | mass density [kg/m3] | viscosity [mPa·s]
288.15 K, x2 = 0 | 1037.5 | 1.259
288.15 K, x2 = 0.06 | 1034.7 | 1.278
288.15 K, x2 = 0.12 | 1031.3 | 1.281
288.15 K, x2 = 0.18 | 1029.5 | 1.273
288.15 K, x2 = 0.24 | 1027.1 | 1.261
288.15 K, x2 = 0.35 | 1024.2 | 1.228
288.15 K, x2 = 0.45 | 1021.1 | 1.185
288.15 K, x2 = 0.55 | 1018.1 | 1.142
288.15 K, x2 = 0.65 | 1014.3 | 1.096
288.15 K, x2 = 0.74 | 1010.1 | 1.051
288.15 K, x2 = 0.83 | 1006.2 | 1.001
288.15 K, x2 = 0.92 | 1002.3 | 0.9612
293.15 K, x2 = 0 | 1030.2 | 1.166
293.15 K, x2 = 0.06 | 1028.4 | 1.174
293.15 K, x2 = 0.12 | 1025.9 | 1.177
293.15 K, x2 = 0.18 | 1024.5 | 1.17
293.15 K, x2 = 0.24 | 1022.7 | 1.159
293.15 K, x2 = 0.35 | 1019.5 | 1.128
293.15 K, x2 = 0.45 | 1016.1 | 1.093
293.15 K, x2 = 0.55 | 1012.8 | 1.058
293.15 K, x2 = 0.65 | 1009.1 | 1.021
293.15 K, x2 = 0.74 | 1005.3 | 0.9894
293.15 K, x2 = 0.83 | 1001.7 | 0.9628
293.15 K, x2 = 0.92 | 998.2 | 0.9384
298.15 K, x2 = 0 | 1023.4 | 1.084
298.15 K, x2 = 0.06 | 1022.3 | 1.093
298.15 K, x2 = 0.12 | 1021.2 | 1.098
298.15 K, x2 = 0.18 | 1019.5 | 1.093
298.15 K, x2 = 0.24 | 1018.1 | 1.084
298.15 K, x2 = 0.35 | 1014.5 | 1.059
298.15 K, x2 = 0.45 | 1011.2 | 1.032
298.15 K, x2 = 0.55 | 1007.8 | 1.002
298.15 K, x2 = 0.65 | 1004.1 | 0.9754
298.15 K, x2 = 0.74 | 1000.5 | 0.9543
298.15 K, x2 = 0.83 | 996.4 | 0.9353
298.15 K, x2 = 0.92 | 993 | 0.9189
303.15 K, x2 = 0 | 1016.6 | 1.028
303.15 K, x2 = 0.06 | 1016.4 | 1.038
303.15 K, x2 = 0.12 | 1015.9 | 1.042
303.15 K, x2 = 0.18 | 1014.5 | 1.037
303.15 K, x2 = 0.24 | 1013.1 | 1.031
303.15 K, x2 = 0.35 | 1009.9 | 1.01
303.15 K, x2 = 0.45 | 1006.5 | 0.9913
303.15 K, x2 = 0.55 | 1003.2 | 0.9667
303.15 K, x2 = 0.65 | 999.3 | 0.9452
303.15 K, x2 = 0.74 | 995.5 | 0.9283
303.15 K, x2 = 0.83 | 991.3 | 0.9135
303.15 K, x2 = 0.92 | 987.6 | 0.9007
308.15 K, x2 = 0 | 1011 | 0.9921
308.15 K, x2 = 0.06 | 1011.01 | 0.9966
308.15 K, x2 = 0.12 | 1010.7 | 0.9977
308.15 K, x2 = 0.18 | 1010.32 | 0.9959
308.15 K, x2 = 0.24 | 1008.6 | 0.9894
308.15 K, x2 = 0.35 | 1005.6 | 0.9741
308.15 K, x2 = 0.45 | 1002.1 | 0.9577
308.15 K, x2 = 0.55 | 998.9 | 0.938
308.15 K, x2 = 0.65 | 995 | 0.9204
308.15 K, x2 = 0.74 | 990.8 | 0.9067
308.15 K, x2 = 0.83 | 986.8 | 0.8938
308.15 K, x2 = 0.92 | 982.8 | 0.8828
313.15 K, x2 = 0 | 1005 | 0.9521
313.15 K, x2 = 0.06 | 1006.5 | 0.9668
313.15 K, x2 = 0.12 | 1007 | 0.9724
313.15 K, x2 = 0.18 | 1006.3 | 0.9671
313.15 K, x2 = 0.24 | 1005.5 | 0.9597
313.15 K, x2 = 0.35 | 1002.4 | 0.9453
313.15 K, x2 = 0.45 | 998.3 | 0.9308
313.15 K, x2 = 0.55 | 994.9 | 0.916
313.15 K, x2 = 0.65 | 990.8 | 0.9008
313.15 K, x2 = 0.74 | 987 | 0.8876
313.15 K, x2 = 0.83 | 983 | 0.8758
313.15 K, x2 = 0.92 | 979 | 0.8652
